Results published in patent US12410171B2, “Tropomyosin receptor kinase (TRK) degradation compounds and methods of use” (Cullgen (Shanghai), Inc., priority 2020, dated 2025).

The compounds below were run against T1, TPM3-TRKA fusion protein (Homo sapiens, UniProt P04629) (assay: TPM3-TRKA fusion protein levels in KM12 cells (Western blot)). Settings: 16 h; TPM3-TRKA degradation in KM12 cells at 10 nM compound, category of percentage degradation; read-out: Degradation (at 10 nM).
T1 construct: The resulted chimeric proteins always retain the kinase domain of TRK proteins; TPM3 (fusion partner, N-terminal part of tropomyosin alpha-3, P06753); endogenous in cells; host or cells: KM12 colon cancer cells; the other entry of the earlier key: TPM3 (P06753, Tropomyosin alpha-3 chain)
T1 sequence (P04629 with tags, fused parts or gaps): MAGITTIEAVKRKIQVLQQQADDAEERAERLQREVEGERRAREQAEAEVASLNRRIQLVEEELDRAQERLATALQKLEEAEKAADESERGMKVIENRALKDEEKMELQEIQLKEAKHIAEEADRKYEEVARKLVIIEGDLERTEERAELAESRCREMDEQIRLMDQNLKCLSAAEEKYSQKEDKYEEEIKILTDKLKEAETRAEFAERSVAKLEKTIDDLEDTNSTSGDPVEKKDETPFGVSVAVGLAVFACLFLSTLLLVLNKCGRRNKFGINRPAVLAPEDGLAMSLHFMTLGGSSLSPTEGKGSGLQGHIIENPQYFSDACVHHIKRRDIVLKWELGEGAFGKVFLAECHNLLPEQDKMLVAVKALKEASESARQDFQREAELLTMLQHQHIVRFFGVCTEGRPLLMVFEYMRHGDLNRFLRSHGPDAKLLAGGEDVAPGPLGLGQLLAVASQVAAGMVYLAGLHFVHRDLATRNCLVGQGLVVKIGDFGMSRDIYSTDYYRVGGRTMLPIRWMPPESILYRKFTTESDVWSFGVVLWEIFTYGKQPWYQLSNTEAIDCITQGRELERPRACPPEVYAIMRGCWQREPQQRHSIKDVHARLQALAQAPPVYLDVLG
Assay type: cell-based
Description: KM12 cells were treated with DMSO or indicated compounds at 100 nM for 16 hours.
KM12 cells were treated with DMSO or indicated compounds at 0. 1 nM, 1 nM or 10 nM for 16 hours.
KM12 cells were treated with DMSO or indicated compounds at various concentrations for 16 hours.
KM12 cells were treated with DMSO or indicated compounds at various concentrations for 4 hours.
KM12 cells (a cancer model comprising a colon cancer cell line) were treated with DMSO or indicated compounds at various concentrations for 4 hours.
KM12 cells were treated with heterobifunctional compounds or their corresponding control compounds at 10 nM or 100 nM for 16 hours.
KM12 cells were treated with heterobifunctional compounds or their corresponding control compounds at 0.4-30 nM for 8-16 hours. […] Cells were authenticated using the short tandem repeat (STR) assays. […] Stable cell lines were established by lentivirus transduction, selected and maintained in medium containing 1 μg/mL puromycin (Beyotime Biotechnology).
Cultured cells were washed with cold PBS once and lysed in cold RIPA buffer supplemented with protease inhibitors and phosphatase inhibitors (Beyotime Biotechnology). The solutions were then incubated at 4° C. for 30 minutes with gentle agitation to fully lyse cells. For tumor tissues, tumors were cut into small pieces, milled with cold RIPA buffer using a mechanical homogenizer and lysed for 1 hour at 4° C. Cell lysates were centrifuged at 13,000 rpm for 10 minutes at 4° C. and pellets were discarded. Total protein concentrations in the lysates were determined by BCA assays (Beyotime Biotechnology). Cell lysates were mixed with Laemmli loading buffer to 1× and heated at 99° C. for 5 min. Proteins were resolved on SDS-PAGE and visualized by chemiluminescence. Images were taken by a ChemiDoc MP Imaging system (Bio-Rad). Protein bands were quantitated using the software provided by Bio-Rad.

Compound | percent degradation of TPM3-TRKA protein at 0.01 µM [%]
O=C1CCC(N2C(=O)c3cccc(NCCOCCOCCC(=O)N4CCN(c5ccc(C(=O)Nc6n[nH]c7ccc(Cc8cc(F)cc(F)c8)cc67)c(NC6CCOCC6)c5)CC4)c3C2=O)C(=O)N1 (stereo not drawn) [CPD-032, N—(S-(3,5-Difluorobenzyl)-1H-indazol-3-yl)-4-(4-(3-(2-(2-((2-(2,6-dioxopiperidin-3-yl)-1,3-dioxoisoindolin-4-yl)amino)ethoxy)ethoxy)propanoyl)piperazin-1-yl)-2-((tetrahydro-2H-pyran-4-yl)amino)benzamide] | > 80
Cc1ncsc1-c1ccc(CNC(=O)[C@@H]2C[C@@H](O)CN2C(=O)[C@@H](NC(=O)CCCCCCC(=O)N2CCN(c3ccc(C(=O)Nc4n[nH]c5ccc(Cc6cc(F)cc(F)c6)cc45)c(NC4CCOCC4)c3)CC2)C(C)(C)C)cc1 [CPD-033, (2S,4R)-1-((S)-2-(8-(4-(4-((5-(3,5-Difluorobenzyl)-1H-indazol-3-yl)carbamoyl)-3-((tetrahydro-2H-pyran-4-yl)amino)phenyl)piperazin-1-yl)-8-oxooctanamido)-3,3-dimethylbutanoyl)-4-hydroxy-N-(4-(4-methylthiazol-5-yl)benzyl)pyrrolidine-2-carboxamide] | > 80
Cc1ncsc1-c1ccc(CNC(=O)[C@@H]2C[C@@H](O)CN2C(=O)[C@@H](NC(=O)CCCCCCCCC(=O)N2CCN(c3ccc(C(=O)Nc4n[nH]c5ccc(Cc6cc(F)cc(F)c6)cc45)c(NC4CCOCC4)c3)CC2)C(C)(C)C)cc1 [CPD-034, (28,4R)-1-((S)-2-(10-(4-(4-((5-(3,5-Difluorobenzyl)-1H-indazol-3-yl)carbamoyl)-3-((tetrahydro-2H-pyran-4-yl)amino)phenyl)piperazin-1-yl)-10-oxodecanamido)-3,3-dimethylbutanoyl)-4-hydroxy-N-(4-(4-methylthiazol-5-yl)benzyl)pyrrolidine-2-carboxamide] | < 50
Cc1ncsc1-c1ccc(CNC(=O)[C@@H]2C[C@@H](O)CN2C(=O)[C@@H](NC(=O)CCCCCCCCCC(=O)N2CCN(c3ccc(C(=O)Nc4n[nH]c5ccc(Cc6cc(F)cc(F)c6)cc45)c(NC4CCOCC4)c3)CC2)C(C)(C)C)cc1 [CPD-035, (25,4R)-1-((S)-2-(11-(4-(4-((5-(3,5-Difluorobenzyl)-1H-indazol-3-yl)carbamoyl)-3-((tetrahydro-2H-pyran-4-yl)amino)phenyl)piperazin-1-yl)-11-oxoundecanamido)-3,3-dimethylbutanoyl)-4-hydroxy-N-(4-(4-methylthiazol-5-yl)benzyl)pyrrolidine-2-carboxamide] | < 50
Cc1ncsc1-c1ccc(CNC(=O)[C@@H]2C[C@@H](O)CN2C(=O)[C@@H](NC(=O)CCCCCCCC(=O)N2CCN(c3ccc(C(=O)Nc4n[nH]c5ccc(Cc6cc(F)cc(F)c6)cc45)c(NC4CCOCC4)c3)CC2)C(C)(C)C)cc1 [CPD-037, (25,4R)-1-((S)-2-(9-(4-(4-((5-(3,5-Difluorobenzyl)-1H-indazol-3-yl)carbamoyl)-3-((tetrahydro-2H-pyran-4-yl)amino)phenyl)piperazin-1-yl)-9-oxononanamido)-3,3-dimethylbutanoyl)-4-hydroxy-N-(4-(4-methylthiazol-S-yl)benzyl)pyrrolidine-2-carboxamide] | 50 to 80
Cc1ncsc1-c1ccc(CNC(=O)[C@@H]2C[C@@H](O)CN2C(=O)[C@@H](NC(=O)CCOCCOCCOCCC(=O)N2CCN(c3ccc(C(=O)Nc4n[nH]c5ccc(Cc6cc(F)cc(F)c6)cc45)c(NC4CCOCC4)c3)CC2)C(C)(C)C)cc1 [CPD-039, (28,4R)-1-((S)-2-(tert-butyl)-16-(4-(4-((5-(3,5-Difluorobenzyl)-1H-indazol-3-yl)carbamoyl)-3-((tetrahydro-2H-pyran-4-yl)amino)phenyl)piperazin-1-yl)-4,16-dioxo-7,10,13-trioxa-3-azahexadecanoyl)-4-hydroxy-N-(4-(4-methylthiazol-5-yl)benzyl)pyrrolidine-2-carboxamide] | < 50
Cc1ncsc1-c1ccc(CNC(=O)[C@@H]2C[C@@H](O)CN2C(=O)[C@@H](NC(=O)CCOCCOCCOCCOCCC(=O)N2CCN(c3ccc(C(=O)Nc4n[nH]c5ccc(Cc6cc(F)cc(F)c6)cc45)c(NC4CCOCC4)c3)CC2)C(C)(C)C)cc1 [CPD-041, (2S,4R)-1-((S)-2-(tert-butyl)-19-(4-(4-((5-(3,5-Difluorobenzyl)-1H-indazol-3-yl)carbamoyl)-3-((tetrahydro-2H-pyran-4-yl)amino)phenyl)piperazin-1-yl)-4,19-dioxo-7,10,13,16-tetraoxa-3-azanonadecanoyl)-4-hydroxy-N-(4-(4-methylthiazol-5-yl)benzyl)pyrrolidine-2-carboxamide] | < 50
Cc1ncsc1-c1ccc(CNC(=O)[C@@H]2C[C@@H](O)CN2C(=O)[C@@H](NC(=O)CCCCC(=O)N2CCN(c3ccc(C(=O)Nc4n[nH]c5ccc(Cc6cc(F)cc(F)c6)cc45)c(NC4CCOCC4)c3)CC2)C(C)(C)C)cc1 [CPD-044] | 50 to 80
Cc1ncsc1-c1ccc(CNC(=O)[C@@H]2C[C@@H](O)CN2C(=O)[C@@H](NC(=O)COCC(=O)N2CCN(c3ccc(C(=O)Nc4n[nH]c5ccc(Cc6cc(F)cc(F)c6)cc45)c(NC4CCOCC4)c3)CC2)C(C)(C)C)cc1 [CPD-045, (28,4R)-1-((S)-2-(2-(2-(4-(4-((5-(3,5˜Difluorobenzyl)-1H-indazol-3-yl)carbamoyl)-3-((tetrahydro-2H-pyran-4-yl)amino)phenyl)piperazin-1-yl)-2-oxoethoxy)acetamido)-3,3-dimethylbutanoyl)-4-hydroxy-N-(4-(4-methylthiazol-5-yl)benzyl)pyrrolidine-2-carboxamide] | 50 to 80
Cc1ncsc1-c1ccc(CNC(=O)[C@@H]2C[C@@H](O)CN2C(=O)[C@@H](NC(=O)CCC(=O)N2CCN(c3ccc(C(=O)Nc4n[nH]c5ccc(Cc6cc(F)cc(F)c6)cc45)c(NC4CCOCC4)c3)CC2)C(C)(C)C)cc1 [CPD-046, (25,4R)-1-((S)-2-(4-(4-(4-((S-(3,5-Difluorobenzyl)-1H-indazol-3-yl)carbamoyl)-3,3-((tetrahydro-2H-pyran-4-yl)amino)phenyl)piperazin-1-yl)-4-oxobutanamido)-3,3-dimethylbutanoyl)-4-hydroxy-N-(4-(4-methylthiazol-S-yl)benzyl)pyrrolidine-2-carboxamide] | 50 to 80
Cc1ncsc1-c1ccc(CNC(=O)[C@@H]2C[C@@H](O)CN2C(=O)[C@@H](NC(=O)CCCCCC(=O)N2CCN(c3ccc(C(=O)Nc4n[nH]c5ccc(Cc6cc(F)cc(F)c6)cc45)c(NC4CCOCC4)c3)CC2)C(C)(C)C)cc1 [CPD-047, (28,4R)-1-((S)-2-(7-(4-(4-((5-(3,5-Difluorobenzyl)-1H-indazol-3-yl)carbamoyl)-3-((tetrahydro-2H-pyran-4-yl)amino)phenyl)piperazin-1-yl)-7-oxoheptanamido)-3,3-dimethylbutanoyl)-4-hydroxy-N-(4-(4-methylthiazol-5-yl)benzyl)pyrrolidine-2-carboxamide] | > 80
Cc1ncsc1-c1ccc(CNC(=O)[C@@H]2C[C@@H](O)CN2C(=O)[C@@H](NC(=O)CCOCCC(=O)N2CCN(c3ccc(C(=O)Nc4n[nH]c5ccc(Cc6cc(F)cc(F)c6)cc45)c(NC4CCOCC4)c3)CC2)C(C)(C)C)cc1 [CPD-048, (28,4R)-1-((S)-2-(3-(3-(4-(4-((5-(3,5-Difluorobenzyl)-1H-indazol-3-yl)carbamoyl)-3-((tetrahydro-2H-pyran-4-yl)amino)phenyl)piperazin-1-yl)-3-oxopropoxy)propanamido)-3,3-dimethylbutanoyl)-4-hydroxy-N-(4-(4-methylthiazol-5-yl)benzyl)pyrrolidine-2-carboxamide] | < 50
O=C1CCC(N2C(=O)c3cccc(NCCCCCCC(=O)N4CCN(c5ccc(C(=O)Nc6n[nH]c7ccc(Cc8cc(F)cc(F)c8)cc67)c(NC6CCOCC6)c5)CC4)c3C2=O)C(=O)N1 (stereo not drawn) [CPD-049, N—(S-(3,5-Difluorobenzyl)-1H-indazol-3-yl)-4-(4-(7-((2-(2,6-dioxopiperidin-3-yl)-1,3-dioxoisoindolin-4-yl)amino)heptanoyl)piperazin-1-yl)-2-((tetrahydro-2H-pyran-4-yl)amino)benzamide] | > 80
O=C1CCC(N2C(=O)c3cccc(NCCCCC(=O)N4CCN(c5ccc(C(=O)Nc6n[nH]c7ccc(Cc8cc(F)cc(F)c8)cc67)c(NC6CCOCC6)c5)CC4)c3C2=O)C(=O)N1 (centres unmarked) [CPD-050, N-(5-(3,5-Difluorobenzyl)-1H-indazol-3-yl)-4-(4-(5-((2-(2,6-dioxopiperidin-3-yl)-1,3-dioxoisoindolin-4-yl)amino)pentanoyl)piperazin-1-yl)-2-((tetrahydro-2H-pyran-4-yl)amino)benzamide] | > 80
